Where “and” joins values, the source holds several entries; their conditions need not be identical. Equal entries are not always repeated. Entries after “also recorded” stand apart in the source; their conditions may differ. Structures can show the parent of a compound that is named as a salt. Where two headings read alike, the source gives them in different places. Marks after values point to notes of the source that are not given here.
What was measured:
Male Wistar rats = assay: Effects of streptozotocin (STZ) treatment in rats; assay type: in vivo, rat
Source text: Male Wistar rats (n=28, 303±2.9 g) were divided randomly into STZ-treated and non-treated groups. […] Non-treated animals received an equivalent volume of saline. […] Blood glucose and body weight were measure at day 3 following STZ/saline injection and then weekly throughout the study.

Tg2576 transgenic mice = details: oral treatment, nine weeks for clioquinol; cited from earlier work
[1] = tested on: STZ-treated and non-STZ-treated rats; details: for Serum Cu: trientine i.v. 0.1-100 mg.kg^−1 hourly, terminal sample; for Serum Fe: trientine i.v.
Source text: All animals were fasted overnight prior to surgery but continued to have ad libitum access to deionized water. […] The femoral artery and vein were cannulated with a solid-state blood pressure transducer (Mikrotip™ 1.4F, Millar Instruments, Texas, USA) and a saline filled PE 50 catheter respectively. The ureters were exposed via a midline abdominal incision, cannulated using polyethylene catheters (external diameter 0.9 mm, internal diameter 0.5 mm) and the wound sutured closed. The trachea was cannulated and the animal ventilated at 70-80 breaths.min^−1 with air supplemented with O2 (Pressure Controlled Ventilator, Kent Scientific, Conn., USA). The respiratory rate and end-tidal pressure (10-15 cmH2O) were adjusted to maintain end-tidal CO2 at 35-40 mmHg (SC-300 CO2 Monitor, Pryon Corporation, Wisconsin, USA). Body temperature was maintained at 37° C. throughout surgery and the experiment by a heating pad. Estimated fluid loss was replaced with intravenous administration of 154 mmol.l^−1 NaCl solution at a rate of 5 ml.kg^−1.h^−1.
(§1) Following surgery and a 20 min stabilization period, the experimental protocol was started. […] Control animals received an equivalent volume of saline. Urine was collected in 15 min aliquots throughout the experiment in pre-weighed polyethylene epindorf tubes. At the end of the experiment a terminal blood sample was taken by cardiac puncture and the separated serum stored at −80° C. until future analysis. Hearts were removed through a rapid mid-sternal thoracotomy and processed as described below.
Urine and tissue analysis was carried out as follows. Instrumentation:A Perkin Elmer (PE) Model 3100 Atomic Absorption Spectrophotometer equipped with a PE HGA-600 Graphite Furnace and PE AS-60 Furnace Autosampler was used for Cu and Fe determninations in urine. Deuterium background correction was employed. A Cu or Fe hollow-cathode lamp (Perkin Elmer Corporation) was used and operated at either 10 W (Cu) or 15 W (Fe). The 324.8 nm atomic line was used for Cu and the 248.3 nm atomic line for Fe. The slit width for both Cu and Fe was 0.7 nm. Pyrolytically coated graphite tubes were used for all analyses. The injection volume was 20 μL. A typical graphite furnace temperature program is shown below:
Sample pretreatment was carried out as follows. Urine:Urine was collected in pre-weighed 1.5 ml micro test tubes (eppendorf). After reweighing, the urine specimens were centrifuged and the supernatant diluted 25:1 with 0.02 M 69% Aristar grade HNO3. The sample was stored at 4° C. prior to GF-AAS analysis. If it was necessary to store a sample for a period in excess of 2 weeks, it was frozen and kept at −20° C. Serum:Terminal blood samples were centrifuged and serum treated and stored as per urine until analysis. From the trace metal content of serum from the terminal blood sample and urine collected over the final hour of the experiment, renal clearance was calculated using the following equation: [formula]

[2] = tested on: humans with T2DM or matched controls; details: for Mean CU Losses, fecal, Post-Tment: n = 10, oral 2.4 g once daily
Protocol: Total metal balance studies were performed in a residential metabolic unit. Total fecal outputs were collected daily for 12 days, freeze dried, and analyzed by ICP-MS for content of Cu, Fe, Zn, Ca, Mg, Mn, Cr, […] and Se.

[3] = 0.9% saline, 0.67-670 mg/ml, four months at 4° C.
Protocol: The concentrations of the stock formulations were:0.67 mg/ml, 6.7 mg/ml, 67 mg/ml, and 670 mg/ml. The formulation was then administered to the rats in doses of 0.1 mg/kg, 1 mg/kg, 10 mg/kg, and 100 mg/kg to the animals respectively.

[4] = tested on: male humans with T2DM and matched non-diabetic controls
Source text: Methods were as follows. Human studies were approved by institutional ethics and regulatory committees. We measured urinary metal excretion in human males with T2DM or matched non-diabetic controls, baseline information on which is shown in Table 9, in a randomized, double blind, placebo-controlled trial. Males with uncomplicated T2DM (Table 9) underwent 12-d elemental balance studies in a fully residential metabolic unit. All foods and beverages were provided. Total daily intake (method of double diets) and excretion (urinary and fecal) of trace elements (Ca, Mg, Zn, Fe, Cu, Mn, Mo, Cr and Se) were determined (ICP MS).

[5] = tested on: STZ-treated and normal rats; assay: Isolated working heart function after 7 weeks oral trientine
[6] = tested on: STZ-treated and non-STZ-treated rats; details: highest dose 100 mg/kg i.v., 2 min following administration
Protocol: as §1
Mean arterial pressure (MAP), heart rate (HR, derived from the MAP waveform) oxygen saturation (Nonin 8600V Pulse Oximeter, Nonin Medical Inc., Minnesota, USA) and core body temperature, were all continuously monitored throughout the experiment using a PowerLab/16s data acquisition module (AD Instruments, Australia).
Following surgery and a 20 min stabilization period, the experimental protocol was started. […] Urine was collected throughout the experiment in 15 min aliquots.

[7] = tested on: STZ-treated and non-STZ-treated rats; assay: Left ventricular histology by LCM and TEM after oral trientine
[8] = tested on: STZ-treated and non-STZ-treated rats; details: for Cu content of heart tissue / Fe content of heart tissue: mean ± SEM
Protocol: Methods were carried out as follows. Spectrophotometric analysis was conducted as described in Example 2. Cu, Fe and Zn in tissue digests were determined at Hill Laboratories (Hamilton, New Zealand) using either a PE Sciex Elan-6000 or PE Sciex Elan-6100 DRC ICP-MS.
Sample pre-treatment was carried out as follows. Heart:Following removal from the animal, the heart was cleaned of excess tissue, rinsed in buffer to remove excess blood, blotted dry and a wet ventricular weight recorded. Using titanium instruments a segment of left ventricular muscle was dissected and placed in a pre-weighed 5.0 ml polystyrene tube. The sample was freeze-dried overnight to constant weight before 0.45 ml of 69% Aristar grade HNO3 was added. The sample tube was heated in a water bath at 65° C. for 60 minutes. The sample was brought to 4.5 ml with Milli-Q H2O. The resulting solution was diluted 2:1 in order to reduce the HNO3 concentration below the maximum permitted for ICP-MS analysis.

humans with T2DM = assay: 6-month double-blind placebo-controlled oral trientine trial, LV mass by cardiac MRI
Source text: Subjects (30-70 y) who provided written informed consent were eligible for inclusion if they had:T2DM with HbA1c>7%; cardiac ejection fraction (echocardiography)≧45% with evidence of diastolic dysfunction but no regional wall-motion anomalies; no new medications for more than 6 months with no change of β-blocker dose; normal electrocardiogram (sinus rhythm, normal PR Interval, normal T wave and QRS configuration, and isoelectric ST segment); and greater than 90% compliance with single-blinded placebo therapy during a 2-w run-in period. Women were required to be post-menopausal, surgically sterile, or non-lactating and non-pregnant and using adequate contraception.
Before randomization, potentially eligible subjects entered a 4-w single blind run-in phase of two placebo-capsules twice-daily and underwent screening echocardiography, being excluded if regional wall motion abnormalities or impaired LV systolic function (ejection fraction <50%) were detected. In addition, LV diastolic filling was assessed using mitral inflow Doppler (with pre-load reduction) to ensure patients had abnormalities of diastolic filling; no patient with normal mitral filling proceeded to randomisation. […] The double-blind treatment was continued for 6 months in each subject.
At baseline and following 6 months' treatment, LV mass was determined using cardiac MRI, performed in the supine position with the same 1.5 T scanner (Siemens Vision) using a phased array surface coil. Prospectively gated cardiac cine images were acquired in 6 short axis and 3 long axis slices with the use of a segmented k-space pulse sequence (TR 8 ms; TE 5 ms; flip angle 10°; field of view 280-350 mm) with view sharing (11-19 frames.slice^−1). Each slice was obtained during a breath-hold of 15-19 heartbeats. The short axis slices spanned the left ventricle from apex to base with a slice thickness of 8 mm and inter-slice gap of 2-6 mm. The long axis slices were positioned at equal 60° intervals about the long axis of the LV. […] LV-mass and volume were calculated using guide point modeling, which produces precise and accurate estimations of mass and volume. Briefly, a three dimensional mathematical model of the LV was interactively fitted to the epicardial and endocardial boundaries of the LV wall in each slice of the study, simultaneously. Volume and mass were then calculated from the model by numerical integration (mass=wall volume×1.05 g.ml^−1). All measurements were performed by 1 measurer at the end of six months' data collection. Outcome analyses were conducted by intention-to-treat, using a maximum likelihood approach to impute missing at random data within a mixed model, and marginal least-squares adjusted-means were determined. Changes from baseline were compared between treatment-groups in the mixed model with baseline values entered as covariate. Since there were only 2 groups in the main effect and no interaction effect, no post hoc procedures were employed. In additional analysis the influence of clinically important differences between the treatment groups at baseline was considered by adjusting for them as covariates in an additional model. All P values were calculated from 2-tailed tests of statistical significance and a 5% significance level was maintained throughout. The effect of treatment on categorical variables was tested using the procedures of Mantel and Haenzel (SAS v8.01, SAS Institute).

[9] = 15 days
Protocol: One sample of the solution was stored in the dark at 4° C. and 21° C. in the dark and a third sample was stored at 21° C. in daylight.
The Ultraviolet-visible spectrum of the formulation was initially measured at day 0 and then at day 15. 20 μl aliquots of sample solutions were taken at day 15. For each aliquot 960 μl of 50 mM TRIS buffer and 20 μl aliquot of Copper Nitrate standard (100 mM—Orion Research Inc) were added.

[10] = STZ-treated animals n = 14, mean ± SEM
[11] = STZ-treated rats, oral trientine 7 weeks
[12] = STZ-treated and non-STZ-treated rats

Compound: CN(N=O)C(=O)N[C@H]1C(O)O[C@H](CO)[C@@H](O)[C@@H]1O (mixture of isomers) [STZ, streptozotocin]
- Daily food consumption (Male Wistar rats; STZ 55 mg.kg^−1 i.v., n = 14, mean ± SEM): *58 ± 1 g
- Heart rate (HR), control period prior to infusion (Male Wistar rats; STZ-treated anaesthetized rats): 287±11 bpm
- Heart weight/body weight (Male Wistar rats; [10]): *2.93 ± 0.05 mg · g^−1
- Wet heart weight (Male Wistar rats; [10]): *0.78 ± 0.02 g

Compound: Oc1c(I)cc(Cl)c2cccnc12 [clioquinol]
- Brain Aβ / amyloid deposition (Tg2576 transgenic mice): decrease in brain Aβ deposition

Compound: NCCNCCNCCN [trientine dihydrochloride]
- Cu excretion in urine versus saline at lowest dose ([1]; 0.1 mg.kg^−1 parenteral, rats): significantly increased
- Effect on fecal Cu output ([2]; normal humans and those with T2DM, dihydrochloride): does not result in increased excretion of copper in the feces

Compound: NCCNCCNCCN [trientine hydrochloride]
- Stability of stock solutions on storage (copper chelation efficacy) ([3]; hydrochloride): without appreciable deterioration in efficacy

Compound: NCCNCCNCCN [trientine]
- Stability of stock solutions on storage (copper chelation efficacy) [3]: remains active as a copper chelator
- Mean trientine-evoked urinary Cu-excretion ([4]; T2DM, oral 2.4 g once-daily): 5.8 µmol/day
- Urinary Cu, diabetic and control groups ([4]; day 7, oral 2.4 g): increased urinary Cu in both groups
- Mean trientine-evoked urinary Cu-excretion ([4]; non-diabetic controls, oral 2.4 g once-daily): 4.1 µmol/day
- Increase of trientine-evoked urinary Cu-excretion in T2DM compared to non-diabetic controls ([4]; oral 2.4 g once-daily): 40%
- Trientine-evoked urinary Fe excretion ([4]; oral 2.4 g once-daily): no corresponding increase
- Urinary Cu excretion, trientine-treated T2DM versus trientine-treated non-diabetic controls ([4]; single 2.4-g oral dose, day 7, P<0.05): significantly greater
- Cardiac function versus untreated STZ-treated controls [5, 11]: improved cardiac function
- Cardiac output with increasing pre-load, after-load constant [5, 11]: restored to Sham values
- Trientine treated STZ-treated hearts still functioning when 50% of untreated STZ-treated hearts had failed ([5]; increasing after-load, constant pre-load): about 90%
- Effect on cardiac performance of normal animals ([5]; non-STZ-treated rats, oral trientine 7 weeks): no adverse effects on cardiac performance
- Blood glucose profile versus untreated comparison group ([5]; oral trientine in drinking water weeks 7-13): made no difference
- heart:body weight ratio in STZ-treated animals ([5]; oral trientine weeks 7-13 versus untreated STZ): small but significant improvement
- Maximum decrease of mean arterial pressure (MAP) [6]: 19±4 mmHg and 19+/−4 mmHg
- Myocardium of trientine-treated non-STZ-treated rats [7]: appeared normal
- Myocardial (LV) histology in STZ-treated rats ([7]; 7 weeks oral trientine): improved; also recorded: substantive recovery of LV structure
- Cu content of heart tissue ([8]; STZ-treated rats): 24.7 ± 1.5 μg · g^−1 dry tissue
- Fe content of heart tissue ([8]; STZ-treated rats): 186 ± 46 μg · g^−1 dry tissue
- Effect on copper content of cardiac tissue ([8]; acute i.v. increasing doses, normal and STZ-treated rats): no significant effect
- Cu content of heart tissue ([8]; non-STZ-treated rats): 27.1 ± 1.0 μg · g^−1 dry tissue
- Fe content of heart tissue ([8]; non-STZ-treated rats): 235 ± 39 μg · g^−1 dry tissue
- Adverse events during 6 months' therapy (humans with T2DM; 600 mg twice-daily oral): No significant trientine-related adverse events
- Δ diastolic blood pressure (humans with T2DM; 6 months − baseline, mean): −3.9 mmHg
- Δ systolic blood pressure (humans with T2DM; 6 months − baseline, mean): −3.5 mmHg
- Δ urinary copper (humans with T2DM; 6 months − baseline, mean): -0.83 µmol/L
- Δ left ventricular mass/body surface area (humans with T2DM; 6 months − baseline, mean, P<0.01 vs. placebo): −5.56** g · m^−2
- Decrease of mean LV mass (humans with T2DM; diabetics, 600 mg twice-daily oral, 6 months): 5%
- Brain Aβ / amyloid deposition (Tg2576 transgenic mice): did not inhibit amyloid deposition
- Change in ability to chelate copper on storage ([9]; 100 mM in deionized water, 4° C. dark, 21° C. dark, 21° C. daylight): no detectable change
- Effect of room light on copper chelation ([9]; 100 mM solution, 21° C., daylight): no detectable detrimental effect
- Urine excretion versus saline ([1]; 100 mg.kg^−1 dose, non-STZ-treated rats): increased urine excretion
- Total copper excreted over the entire duration of the experiment versus saline controls [1, 12]: significantly increased
- Urinary iron excretion versus saline [1, 12]: not increased
- Serum Cu ([1]; STZ-treated rats, n = 6): 7.56 ± 0.06 μg · μl^−1 × 10^−4
- Serum Fe ([1]; STZ-treated rats, n = 6): 35.7 ± 7.98 μg · μl^−1 × 10^−4
- Urinary Cu excretion versus equivalent volume of saline ([1]; all doses 0.1, 1.0, 10, 100 mg.kg^−1 i.v., STZ-treated and non-STZ-treated rats): excreted more Cu
- Urinary copper excretion per gram of bodyweight, STZ-treated versus non-STZ-treated ([1]; following trientine administration): greater per gram of bodyweight in STZ-treated
- Serum Cu ([1]; non-STZ-treated rats, n = 4): 7.11 ± 0.41 μg · μl^−1 × 10^−4
- Serum Fe ([1]; non-STZ-treated rats, n = 4): 33.6 ± 1.62 μg · μl^−1 × 10^−4
- Mean CU Losses, fecal, Post-Tment ([2]; control): 2.045 mg/day
- Mean CU Losses, fecal, Post-Tment ([2]; diabetic): 1.965 mg/day
- Effect on fecal outputs of Zn, Fe, Ca, Mg, Mn, Cr, Mb or Se ([2]; oral 2.4 g once daily): Neither diabetes nor trientine had measurable effects
